Our source for the mutagenic call values is PubChem BioAssay AID1259407 (Chemical Carcinogenesis Research Information System (CCRIS), 2018).

Activity calls are given as the source filed them. No rule for the calls is given here.

For this series, the system named is CCRIS mutagenicity, Ames/micronucleus/aberration tests. The series can be described thus: CCRIS mutagenicity studies.
[1] abbreviates: Test System: AMES SALMONELLA TYPHIMURIUM, Strain/Indicator: TA98, Metabolic Activation: NONE, Method: PREINCUBATION
Setting [2] is: Test System: AMES SALMONELLA TYPHIMURIUM, Strain/Indicator: TA98, Metabolic Activation: RAT, LIVER, S-9, AROCLOR 1254, Method: STANDARD PLATE.
The mark [3] stands for this setting: Test System: AMES SALMONELLA TYPHIMURIUM, Strain/Indicator: TA100, Metabolic Activation: NONE, Method: PREINCUBATION
Setting [4] is: Test System: AMES SALMONELLA TYPHIMURIUM, Strain/Indicator: TA100, Metabolic Activation: RAT LIVER S-9, AROCLOR 1254, Method: PREINCUBATION
Setting [5] is: Test System: AMES SALMONELLA TYPHIMURIUM, Strain/Indicator: TA100, Metabolic Activation: RAT, LIVER, S-9, AROCLOR 1254, Method: STANDARD PLATE.
The mark [6] stands for this setting: Test System: AMES SALMONELLA TYPHIMURIUM, Strain/Indicator: TA98, Metabolic Activation: NONE, Method: STANDARD PLATE.
Setting [7] is: Test System: AMES SALMONELLA TYPHIMURIUM, Strain/Indicator: TA100, Metabolic Activation: NONE, Method: STANDARD PLATE.

Take `Nc1cccc(-c2ccccc2)c1`: the mutagenic call is “inactive; negative” under setting [1]; “inactive; negative” (Test System: AMES SALMONELLA TYPHIMURIUM, Strain/Indicator: TA98, Metabolic Activation: RAT LIVER S-9, AROCLOR 1254, Method: PREINCUBATION); “active; positive” (Test System: AMES SALMONELLA TYPHIMURIUM, Strain/Indicator: TA98, Metabolic Activation: RAT, LIVER, S-9, AROCLOR 1254 (4%), Method: STANDARD PLATE); “inactive; negative” under setting [2]; “inactive; negative” under setting [3]; “inactive; negative” under setting [4]. For the same compound, the mutagenic call under setting [5] was “inactive; negative”.
As to `O=[N+]([O-])c1ccc2ccc3cc4c(c5ccc1c2c35)C=CCC4`, the mutagenic call (Test System: AMES SALMONELLA TYPHIMURIUM, Strain/Indicator: TA98(1,8-DNP6), Metabolic Activation: NONE, Method: STANDARD PLATE) was “active; positive”; the mutagenic call (Test System: AMES SALMONELLA TYPHIMURIUM, Strain/Indicator: TA98(1,8-DNP6), Metabolic Activation: RAT, LIVER, S-9, AROCLOR 1254, Method: STANDARD PLATE) was “active; positive”; the mutagenic call (Test System: AMES SALMONELLA TYPHIMURIUM, Strain/Indicator: TA98(NR), Metabolic Activation: NONE, Method: STANDARD PLATE) was “active; positive”; the mutagenic call (Test System: AMES SALMONELLA TYPHIMURIUM, Strain/Indicator: TA98(NR), Metabolic Activation: RAT, LIVER, S-9, AROCLOR 1254, Method: STANDARD PLATE) was “active; positive”; the mutagenic call under setting [6] was “active; positive”; the mutagenic call under setting [2] is “active; positive”. Also, the mutagenic call was “inactive; negative” under setting [7] and “active; positive” under setting [5].
In the case of `c1ccc2cc3c4c(ccc3cc2c1)CCC1OC41` (stereo unspecified), under “Test System: CHINESE HAMSTER V-79, Strain/Indicator: V-79/8-AZAGUANINE, Metabolic Activation: NONE, Method: STANDARD PLATE”, the mutagenic call is “active; positive”.
As for `c1ccc2c(c1)cc1sc3cccc4ccc2c1c43`, the mutagenic call is “inactive; negative” under setting [6]; “active; positive” (Test System: AMES SALMONELLA TYPHIMURIUM, Strain/Indicator: TA98, Metabolic Activation: RAT, LIVER, S-9, AROCLOR 1254 (10%), Method: STANDARD PLATE); “inactive; negative” under setting [7]; “inactive; negative” (Test System: AMES SALMONELLA TYPHIMURIUM, Strain/Indicator: TA100, Metabolic Activation: RAT, LIVER, S-9, AROCLOR 1254 (10%), Method: STANDARD PLATE).
As to `CC1(c2ccccc2)C(=O)c2ccccc2N1[O]` (stereo unspecified), the mutagenic call is “inactive; negative” under setting [6]; “inactive; negative” under setting [7]; “inactive; negative” (Test System: AMES SALMONELLA TYPHIMURIUM, Strain/Indicator: TA102, Metabolic Activation: NONE, Method: STANDARD PLATE).
Take `O=[N+]([O-])c1cccc2oc3ccccc3c12`: the mutagenic call is “inactive; negative” (Test System: AMES SALMONELLA TYPHIMURIUM, Strain/Indicator: TA98(1,8-DNP6), Metabolic Activation: NONE, Method: PREINCUBATION); “inactive; negative” (Test System: AMES SALMONELLA TYPHIMURIUM, Strain/Indicator: TA98(1,8-DNP6), Metabolic Activation: NONE, Method: SUSPENSION); “inactive; negative” (Test System: AMES SALMONELLA TYPHIMURIUM, Strain/Indicator: TA98(1,8-DNP6), Metabolic Activation: RAT, LIVER, S-9, PCB (5%), Method: PREINCUBATION); “inactive; negative” (Test System: AMES SALMONELLA TYPHIMURIUM, Strain/Indicator: TA98(NR), Metabolic Activation: NONE, Method: PREINCUBATION); “inactive; negative” (Test System: AMES SALMONELLA TYPHIMURIUM, Strain/Indicator: TA98(NR), Metabolic Activation: NONE, Method: SUSPENSION); “inactive; negative” (Test System: AMES SALMONELLA TYPHIMURIUM, Strain/Indicator: TA98(NR), Metabolic Activation: RAT, LIVER, S-9 (10%), Method: PREINCUBATION). Besides, the mutagenic call runs as follows: (Test System: AMES SALMONELLA TYPHIMURIUM, Strain/Indicator: TA98(NR), Metabolic Activation: RAT, LIVER, S-9, 3-METHYLCHOLANTHRENE (10%), Method: PREINCUBATION) “active; positive”; (Test System: AMES SALMONELLA TYPHIMURIUM, Strain/Indicator: TA98(NR), Metabolic Activation: RAT, LIVER, S-9, BETA-NAPHTHOFLAVONE (10%), Method: PREINCUBATION) “inactive; negative”; (Test System: AMES SALMONELLA TYPHIMURIUM, Strain/Indicator: TA98(NR), Metabolic Activation: RAT, LIVER, S-9, PCB (5%), Method: PREINCUBATION) “inactive; negative”; (Test System: AMES SALMONELLA TYPHIMURIUM, Strain/Indicator: TA98(NR), Metabolic Activation: RAT, LIVER, S-9, PCB (10%), Method: PREINCUBATION) “inactive; negative”; (Test System: AMES SALMONELLA TYPHIMURIUM, Strain/Indicator: TA98(NR), Metabolic Activation: RAT, LIVER, S-9, PHENOBARBITAL (10%), Method: PREINCUBATION) “inactive; negative”; under setting [1], “inactive; negative”. Moreover, the mutagenic call runs as follows: (Test System: AMES SALMONELLA TYPHIMURIUM, Strain/Indicator: TA98, Metabolic Activation: NONE, Method: SUSPENSION) “inactive; negative”; (Test System: AMES SALMONELLA TYPHIMURIUM, Strain/Indicator: TA98, Metabolic Activation: RAT, LIVER, S-9, PCB (5%), Method: PREINCUBATION) “inactive; negative”; (Test System: AMES SALMONELLA TYPHIMURIUM, Strain/Indicator: TA98, Metabolic Activation: RAT, LIVER, S-9, PCB, Method: SUSPENSION) “inactive; negative”; under setting [3], “inactive; negative”; (Test System: AMES SALMONELLA TYPHIMURIUM, Strain/Indicator: TA100, Metabolic Activation: NONE, Method: SUSPENSION) “inactive; negative”; (Test System: AMES SALMONELLA TYPHIMURIUM, Strain/Indicator: TA100, Metabolic Activation: RAT, LIVER, S-9, PCB (5%), Method: PREINCUBATION) “inactive; negative”. The mutagenic call (Test System: AMES SALMONELLA TYPHIMURIUM, Strain/Indicator: TA100, Metabolic Activation: RAT, LIVER, S-9, PCB, Method: SUSPENSION) was “inactive; negative”.
For the compound `C=C(C)C=O`, the mutagenic call was “active; positive” (Test System: AMES SALMONELLA TYPHIMURIUM, Strain/Indicator: TA100, Metabolic Activation: NONE, Method: MODIFIED LIQUID SUSPENSION); “active; positive” under setting [3]; “active; positive” under setting [4]; “active; positive” (Test System: AMES SALMONELLA TYPHIMURIUM, Strain/Indicator: TA100, Metabolic Activation: RAT, LIVER, S-9, AROCLOR 1254, Method: MODIFIED LIQUID SUSPENSION); “active; positive” (Test System: AMES SALMONELLA TYPHIMURIUM, Strain/Indicator: TA100, Metabolic Activation: RAT, LIVER, S-9, AROCLOR 1254, Method: PREINCUBATION); “active; positive” (Test System: AMES SALMONELLA TYPHIMURIUM, Strain/Indicator: TA104, Metabolic Activation: NONE, Method: PREINCUBATION). In addition, the mutagenic call is “active; positive” (Test System: CHINESE HAMSTER V-79, Strain/Indicator: V-79 (HPRT)/6-THIOGUANINE, Metabolic Activation: NONE) and “inactive; negative” (Test System: CHINESE HAMSTER V-79, Strain/Indicator: V-79 (HPRT)/6-THIOGUANINE, Metabolic Activation: RAT LIVER S-9, AROCLOR 1254).
As for `Fc1cc(F)c2ncccc2c1F`, the mutagenic call (Test System: AMES SALMONELLA TYPHIMURIUM, Strain/Indicator: TA100, Metabolic Activation: RAT LIVER S-9, PHENOBARBITAL AND 5,6-BENZOFLAVONE, Method: PREINCUBATION) was “active; positive”.
As for `CCN(CC)c1cc(NC(C)=O)c(N=Nc2c(Cl)cc([N+](=O)[O-])cc2[N+](=O)[O-])cc1OC`, the mutagenic call (End Point: IN VITRO CHROMOSOMAL ABERRATIONS, Test System: CHL CELLS, Metabolic Activation: RAT, LIVER, S-9, SODIUM PHENOBARBITAL AND 5,6-BENZOFLAVONE) was “inactive; negative”.
For `COc1ccc(-c2nc(-c3ccccc3)c(-c3ccccc3)[nH]2)cc1`, the mutagenic call was “active; positive” under setting [6]; “inactive; negative” (Test System: AMES SALMONELLA TYPHIMURIUM, Strain/Indicator: TA98, Metabolic Activation: RAT LIVER S-9, 3-METHYLCHOLANTHRENE, SODIUM PHENOBARBITAL, Method: STANDARD PLATE); “active; positive” under setting [7]; “inactive; negative” (Test System: AMES SALMONELLA TYPHIMURIUM, Strain/Indicator: TA100, Metabolic Activation: RAT LIVER S-9, 3-METHYLCHOLANTHRENE, SODIUM PHENOBARBITAL, Method: STANDARD PLATE).
